# Assay results as given in patent US11135445B2, “Antimicrobial photodynamic inactivation procedure and system” (The General Hospital Corporation, priority 2014, dated 2021).
# Key:
# [1] = system: S. aureus; assay: Toxicity of KI alone on bacteria; type: cell-based, Staphylococcus aureus (NCTC 8325); settings: KI 0-50 mM, 10 minutes, dark control and 5 J/cm^2 red light
# Method: (§1) Since there existed a possibility that KI itself could exert an antimicrobial effect, to eliminate or at least account for the direct influence of the KI on the bacteria and to ensure that the final efficiency of the PDI process is attributed to the potentiation of the MB with the KI, additional qualitative performance evaluation tests were performed. Specifically, the bacteria cells (10^8 CFU; 500 uL) were incubated with different concentrations of KI (0-50 mM) for 10 minutes in order to verify the toxicity of KI. An aliquot of 100 μl from each sample, was used as dark control, another (100 μl) was irradiated with 5 J/cm^2 dose of light (660 nm light) and then placed in a new 96 well plate. The aliquots were serially diluted as before. The results presented in FIGS. 2A, 2B (for S. aureus and E. coli) verified that KI itself was not responsible for the increased potency of the PDI treatment observed in the experiments with the MCPPS.
# [2] = system: mammalian dermal skin fibroblasts; assay: Effect of KI in vitro on mammalian cells; type: cell-based; settings: 3 hours, KI 0.001-10 mM
# [3] = Time-resolved singlet oxygen detection (1,270-nm phosphorescence); type: physicochemical
# Method: The interaction of iodide with singlet oxygen photogenerated by RB was examined directly by measuring the lifetime of singlet oxygen at different concentrations of KI and indirectly by monitoring the effect of increasing concentrations of iodide on oxygen uptake induced by irradiation of the RB solution with green light. Time-resolved singlet oxygen detection was carried out as follows. Phosphate-buffered (pH 7.2) D2O solutions of RB (optical densitv,=0.25 to 0.3 at 550 nm) in a 1-cm-optical-path quartz fluorescence cuvette (catalog number QA-1000; Hellma, Mullheim. Germany) were excited by 550-nm pulses generated by an integrated nanosecond neodymium-doped yttrium aluminum garnet laser system equipped with a narrow-band-width optical parametric oscillator (model NT242-1k-SH/SFG; Ekspla. Vilnius, Lithuania), which delivered pulses at a repetition rate of 1 kHz with energy of up to several hundred microjoules in the visible region. […] The near-infrared luminescence (1,270 nm) was measured perpendicularly to the excitation beam in a photon-counting mode using a thermoelectric cooled near-infrared photomultiplier tube (NIR PMT) module (model H10330-45; Hamamatsu, Japan) equipped with a 1,100-nm-cutoff filter and an additional dichroic narrow-band filter narrow-band pass (NBP), selectable from the spectral range of 1,150 to 1,355 nm (NDC Infrared Engineering Ltd., Maldon, Essex, UK). […]
# [4] = system: E. coli; assay: Toxicity of KI alone on bacteria; type: cell-based, Escherichia coli K12 (ATCC 33780); settings: KI 0-50 mM, 10 minutes, dark control and 5 J/cm^2 red light
# Method: as §1
# [5] = system: E. coli; assay: RB-mediated aPDI in vitro with/without KI; type: cell-based, Escherichia coli K-12 (ATCC 33780); settings: for killing: 10 μM RB
# Method: (§2) A source of green light was configured from a white lamp and a band-pass filter probe (wavelength, 540±15 nm Lumacare, Newport Beach, Calif., USA) to deliver light over a spot of 4 cm in diameter to simultaneously irradiate four wells of a 24-well plate in vitro or the whole abrasion in vive at an irradiance of 100 mW/cm^2. Light power was measured with a power meter (model DMM 199 with a 201 standard head; Coherent, Santa Clara, Calif., USA).
# (§3) The following microbial strains were used: the Gram-positive bacterium methicillin-resistant Staphylococcus aureus (MRSA) USA 300, Gram-negative bacteria Escherichia coli K-12 (ATCC 33780) and Pseurdomonas aeruginosa ATCC 19660 (Xen 5P), and strain CEC 749 of the luciferase-expressing fungal yeast Candida albicans. A colony of bacteria or fungal yeast was suspended in 20 ml of brain heart infusion (BHI) broth for bacteria or yeast extract-peptone-dextrose (YPD) for C. albicans and grown overnight in a shaker incubator (New Brunswick Scientific, Edison, N.J.) at 120 rpm under aerobic conditions at 37° C. for bacteria and at 30° C. for C. albicans. For bacteria, an aliquot of 1 ml from an overnight bacterial suspension was refreshed in fresh BHI for 2 to 3 h at 37° C. to mid-log phase. The cell concentration was estimated by measuring the optical density (OD) at 600 nm (OD of 0.6=10^8 cells/ml). The C. albicans cell number was assessed with a hemocytometer and was generally between 10^7 and 10^8 cells/ml.
# (§4) Two types of in vitro aPDI experiments were carried out. The first experiments used cells with fixed RB and KI concentrations while varying the dose of irradiating light. The second type of experiments used cells with a fixed RB concentration and a fixed light dose while varying the KI concentration. Here, comparison was performed based on the order of addition of the components and the effect of centrifugation. […]
# [6] = biological target: P. aeruginosa; assay: RB-mediated aPDI in vitro with/without KI; type: cell-based, Pseudomonas aeruginosa ATCC 19660 (Xen 5P); settings: no KI
# Method: as §2
# as §3, with “The cell concentration was estimated by measuring the optical density (OD) at 600 nm (OD of 0.6=10^8 cells/ml).” left out, “cells/ml. […]” for “cells/ml.”
# [7] = biological target: C. albicans; assay: RB-mediated aPDI in vitro with/without KI; type: cell-based, Candida albicans CEC 749
# Method: as §2
# as §3, with “The cell concentration was estimated by measuring the optical density (OD) at 600 nm (OD of 0.6=10^8 cells/ml).” left out, “cells/ml. […]” for “cells/ml.”
# [8] = system: P. aeruginosa; assay: In vivo PDT of skin abrasions infected with bioluminescent P. aeruginosa; parameters: species or system BALB/c mice; settings: RB 500 μM, up to 20 J/cm^2
# Method: The Pseudomonas aerugenosa strain used in this work was ATCC 19660 (Xen 5P). Bacteria were routinely grown in BHI with aeration in an orbital incubator at 100 rpm and 37° C. overnight to stationary phase. An aliquot of this suspension was then refreshed in fresh BHI to mid-log phase. Cell numbers were estimated by measuring the OD at 600 nm (OD of 0.6=10^8 CFU cells/ml). The bacterial suspension was centrifuged, washed, and resuspended in PBS, and the suspension was diluted 10-fold for the in vivo experiments.
# An IVIS Lumina series III in vivo imaging system (PerkinElmer, Inc., Waltham, Mass., USA) was applied for bioluminescence imaging on a daily basis until the disappearance of the infection by bioluminescence imaging. Using the photon counting mode, an image can be obtained by detecting and integrating individual photons emitted by the bacterial cells. Prior to PDT and imaging, mice were anesthetized by intraperitoneal (i.p.) injection of a ketamine-xylazine cocktail. […] The signal from the bioluminescence image was quantified as the region of interest (ROI), with absolute calibrated data being given as the number of photons/(s cm^2 sr), using the IVIS software. […]
# Mice were divided into four groups of 5 mice each. […] Then, the wounds were irradiated with green light at a fluence of up to 20 J/cm^2, and luminescence imaging was performed after irradiation.
# [9] = biological target: MRSA; assay: RB-mediated aPDI in vitro with/without KI; type: cell-based, methicillin-resistant Staphylococcus aureus (MRSA) USA 300
# Method: as §2, §3, §4
SMILES,bacteria killing by KI alone [1],killing of mammalian cells by KI [2],"shortening of observable lifetime of singlet oxygen-dependent luminescence ([3]; 35 mM KI, RB in D2O)","bimolecular rate constant of quenching (kq) of singlet oxygen ([3]; RB-photogenerated singlet oxygen, KI 0 to 50 mM)",bacteria killing by KI alone [4],"killing ([5]; no KI, 20 J/cm^2 540 nm) [logs]","killing ([5]; with or without 100 mM KI, 10 J/cm^2 540 nm)",killing by RB aPDI in the absence of KI ([5]; no KI),killing by RB aPDI in the absence of KI [6],"killing ([7]; 10 μM RB plus light, no KI, either fluence (10, 20 J/cm^2))","killing, cells centrifuged after incubation with RB ([7]; 10 μM RB, 10 J/cm^2, KI up to 100 mM)",reduction in the bioluminescence signal with 540-nm light [8],"killing ([9]; 100 nM RB plus light, no KI) [logs]","killing after a spin (centrifugation) ([9]; 100 nM RB, 10 J/cm^2)",RB concentration that produced eradication ([9]; RB as antimicrobial PS plus light) [nM]
"[I-].[K+] [KI, potassium iodide]",no bacteria killing was found,did not kill mammalian cells,more than 3 fold,1.1*10^6 l/(m*s),no bacteria killing was found,,,,,,,,,,
"O=C1OC2(c3cc(I)c(O)c(I)c3Oc3c2cc(I)c(O)c3I)c2c(Cl)c(Cl)c(Cl)c(Cl)c21 [RB, Rose bengal]",,,,,,2,less than 1 logs,almost no killing,almost no killing,no killing,some minor killing after centrifugation,only a slight reduction,1 to 2,centrifugation abolished the killing,200
